Measured values: patent US20090143279A1 (priority 2007, published 2009)
Read-outs that look alike come from different tables or passages of the source.

Tests used:
reactive oxygen species = format: cell-based, mouse
OXPHOS gene expression = format: cell-based, mouse
nuOXPHOS transcripts = format: cell-based, mouse
cytochrome c = format: cell-based, mouse
[1] = test system: cellular dehydrogenase activity
mtOXPHOS transcripts = format: cell-based, mouse
[2] = test system: mitochondrial membrane potential; format: cell-based, mouse
[3] = Conc 27.36 μM, normalized score vs mock-treated (DMSO) wells
[4] = composite Z-score vs DMSO, Conc 20 μM
[5] = normalized composite Z-score vs mock-treated (DMSO) wells, Conc 20 μM
[6] = 20 μM, composite Z-score vs DMSO
[7] = composite Z-score vs mock-treated (DMSO) wells, concentration of each compound in μM
[8] = composite Z-score vs DMSO, Conc 20.18 μM

For `c1cncc(C2=NCCC2)c1` [myosmine], the “ROS (composite Z-score)” value (reactive oxygen species; [3]) was 1.543, the “GE-HTS (composite Z-score)” value (OXPHOS gene expression; [3]) was 0.445 and the “nucOX (composite Z-score)” value (nuOXPHOS transcripts; [3]) was 0.712. The “cyt c (composite Z-score)” value (cytochrome c; [3]) was 1.184, the “MTT (composite Z-score)” value [1, 3] was −1.423 and the “Viability (composite Z-score)” value (C2C12 myotubes; [3]) was −0.497. For the same compound, the “mitoOX (composite Z-score)” value (mtOXPHOS transcripts; [3]) was −0.195 and the “ΔΨm (composite Z-score)” value [2, 3] was 0.326.
Compound `COc1ccc2cc([C@H](C)CO)ccc2c1` [naproxol] has an ROS (reactive oxygen species; [4]) of −0.319, a GE-HTS (OXPHOS gene expression; [4]) of −0.895 and a nucOX (nuOXPHOS transcripts; [4]) of −1.214. For the same compound, the cyt c (cytochrome c; [4]) was 0.993, the MTT [1, 4] was −1.522 and the Viability (C2C12 myotubes; [4]) was 0.249. It also gave a mitoOX (mtOXPHOS transcripts; [4]) of −0.018 and a ΔΨm [2, 4] of −0.500.
In the case of `NC[C@@H]1O[C@H](O[C@H]2[C@@H](O)[C@H](O[C@@H]3[C@@H](O)[C@H](N)C[C@H](N)[C@H]3O[C@H]3O[C@H](CN)[C@@H](O)[C@H](O)[C@H]3N)O[C@@H]2CO)[C@H](N)[C@@H](O)[C@@H]1O` [neomycin], the ROS (reactive oxygen species; [4]) was 1.203, the GE-HTS (OXPHOS gene expression; [4]) was 0.817 and the nucOX (nuOXPHOS transcripts; [4]) was 0.598. The cyt c (cytochrome c; [4]) was 0.734, the MTT [1, 4] was −1.478 and the Viability (C2C12 myotubes; [4]) was −1.255. The mitoOX (mtOXPHOS transcripts; [4]) was 1.160 and the ΔΨm [2, 4] was −0.599.
`CC(=O)OC1CCC2(C)C(CCC3C2CCC2(C)C3CC3OC4(CCC(C)CO4)C(C)C32)C1` (centres unmarked) [neotigogenin acetate] was tested, and the ROS (reactive oxygen species; [5]) was −0.437, the GE-HTS (OXPHOS gene expression; [5]) was −0.890 and the nucOX (nuOXPHOS transcripts; [5]) was −0.925. For the same compound, the cyt c (cytochrome c; [5]) was −0.049, the MTT [1, 5] was −1.611 and the Viability (C2C12 myotubes; [5]) was −0.705. It also gave a mitoOX (mtOXPHOS transcripts; [5]) of −0.693 and a ΔΨm [2, 5] of −0.822.
With `O=C(Nc1ccc([N+](=O)[O-])cc1Cl)c1cc(Cl)ccc1O` [niclosamide] the ROS (reactive oxygen species) was −3.069, the ROS (reactive oxygen species; [6]) was −3.862 and the GE-HTS (OXPHOS gene expression) was −0.976. The GE-HTS (OXPHOS gene expression; [6]) was −1.042, the nucOX (nuOXPHOS transcripts) was −1.007 and the nucOX (nuOXPHOS transcripts; [6]) was −0.288. The cyt c (cytochrome c) was −3.177, the cyt c (cytochrome c; [6]) was −2.947 and the MTT [1] was −3.816. It also gave an MTT [1, 6] of −0.296, a Viability (C2C12 myotubes) of −1.410 and a Viability (C2C12 myotubes; [6]) of −0.944. The mitoOX (mtOXPHOS transcripts) was −0.755, the mitoOX (mtOXPHOS transcripts; [6]) was −2.299 and the ΔΨm [2] was −3.700. The ΔΨm [2, 6] was −4.256.
In the case of `CN1CCC[C@H]1c1cccnc1` [nicotine], the ROS (reactive oxygen species) was 0.503, the GE-HTS (OXPHOS gene expression) was −1.360 and the nucOX (nuOXPHOS transcripts) was −1.032. For the same compound, the cyt c (cytochrome c) was 0.348, the MTT [1] was −1.228 and the Viability (C2C12 myotubes) was −0.093. For the same compound, the mitoOX (mtOXPHOS transcripts) was −1.705 and the ΔΨm [2] was −0.423.
With `c1ccc2c3c([nH]c2c1)[C@H]1[C@H]2CC[C@H]([C@@H]4CCCN[C@@H]42)N1CC3` [nitrarine] the ROS (reactive oxygen species; [7]) was 0.458, the GE-HTS (OXPHOS gene expression; [7]) was −0.352 and the nucOX (nuOXPHOS transcripts; [7]) was −0.303. For the same compound, the cyt c (cytochrome c; [7]) was 0.040, the MTT [1, 7] was −1.978 and the Viability (C2C12 myotubes; [7]) was −0.068. For the same compound, the mitoOX (mtOXPHOS transcripts; [7]) was −0.378 and the ΔΨm [2, 7] was −0.986.
`NC(=O)N/N=C/c1ccc([N+](=O)[O-])o1` [nitrofural] showed an ROS (reactive oxygen species; [8]) of 0.446, a GE-HTS (OXPHOS gene expression; [8]) of −0.260 and a nucOX (nuOXPHOS transcripts; [8]) of −0.010. For the same compound, the cyt c (cytochrome c; [8]) was 0.342, the MTT [1, 8] was −0.852 and the Viability (C2C12 myotubes; [8]) was 0.584. It also gave a mitoOX (mtOXPHOS transcripts; [8]) of −0.750 and a ΔΨm [2, 8] of −0.518.
For `NC(=O)N/N=C/c1ccc([N+](=O)[O-])o1` [nitrofurazone], the ROS (reactive oxygen species; [4]) was 2.173, the GE-HTS (OXPHOS gene expression; [4]) was −0.199 and the nucOX (nuOXPHOS transcripts; [4]) was 0.038. The cyt c (cytochrome c; [4]) was 0.785, the MTT [1, 4] was −0.617 and the Viability (C2C12 myotubes; [4]) was 0.544. For the same compound, the mitoOX (mtOXPHOS transcripts; [4]) was −0.643 and the ΔΨm [2, 4] was −0.185.
Work on `NC(=O)c1cc([N+](=O)[O-])cc([N+](=O)[O-])c1` [nitromide] yielded an ROS (reactive oxygen species; [6]) of 1.299, a GE-HTS (OXPHOS gene expression; [6]) of −0.128 and a nucOX (nuOXPHOS transcripts; [6]) of −0.100. It also gave a cyt c (cytochrome c; [6]) of −0.346, an MTT [1, 6] of −1.071 and a Viability (C2C12 myotubes; [6]) of −0.259. For the same compound, the mitoOX (mtOXPHOS transcripts; [6]) was −0.086 and the ΔΨm [2, 6] was 1.648.
For `CN1Cc2c(N)cccc2C(c2ccccc2)C1` (centres unmarked) [nomifensin], the ROS (reactive oxygen species) was 3.133, the ROS (reactive oxygen species; [6]) was 3.112 and the GE-HTS (OXPHOS gene expression) was −0.331. The GE-HTS (OXPHOS gene expression; [6]) was −0.131, the nucOX (nuOXPHOS transcripts) was −0.571 and the nucOX (nuOXPHOS transcripts; [6]) was −0.169. It also gave a cyt c (cytochrome c) of −1.298, a cyt c (cytochrome c; [6]) of −1.233 and an MTT [1] of −0.534. For the same compound, the MTT [1, 6] was −0.885, the Viability (C2C12 myotubes) was 0.121 and the Viability (C2C12 myotubes; [6]) was 0.525. It also gave a mitoOX (mtOXPHOS transcripts) of 0.181, a mitoOX (mtOXPHOS transcripts; [6]) of −0.026 and a ΔΨm [2] of −0.329. It also gave a ΔΨm [2, 6] of −0.059.
